From patent US9551711B2, “Compositions and methods for detecting nitration of PKG-1α and methods of use thereof” (Augusta University Research Institute, Inc., priority 2013, dated 2017)
Where a chain is given by its changes, count along the chain named.

What was measured:
[1] = target: T1, PKG-1α (Homo sapiens, UniProt Q13976, Y247F); assay: PKG activity in transfected HEK-293T cells; type: cell-based; design: made in house; host or cells: HEK-293T; conditions: HEK-293T expressing Y247F-PKG-1α; SIN-1 500 μM, 30 min
T1 sequence (Q13976 2-671 Y247F): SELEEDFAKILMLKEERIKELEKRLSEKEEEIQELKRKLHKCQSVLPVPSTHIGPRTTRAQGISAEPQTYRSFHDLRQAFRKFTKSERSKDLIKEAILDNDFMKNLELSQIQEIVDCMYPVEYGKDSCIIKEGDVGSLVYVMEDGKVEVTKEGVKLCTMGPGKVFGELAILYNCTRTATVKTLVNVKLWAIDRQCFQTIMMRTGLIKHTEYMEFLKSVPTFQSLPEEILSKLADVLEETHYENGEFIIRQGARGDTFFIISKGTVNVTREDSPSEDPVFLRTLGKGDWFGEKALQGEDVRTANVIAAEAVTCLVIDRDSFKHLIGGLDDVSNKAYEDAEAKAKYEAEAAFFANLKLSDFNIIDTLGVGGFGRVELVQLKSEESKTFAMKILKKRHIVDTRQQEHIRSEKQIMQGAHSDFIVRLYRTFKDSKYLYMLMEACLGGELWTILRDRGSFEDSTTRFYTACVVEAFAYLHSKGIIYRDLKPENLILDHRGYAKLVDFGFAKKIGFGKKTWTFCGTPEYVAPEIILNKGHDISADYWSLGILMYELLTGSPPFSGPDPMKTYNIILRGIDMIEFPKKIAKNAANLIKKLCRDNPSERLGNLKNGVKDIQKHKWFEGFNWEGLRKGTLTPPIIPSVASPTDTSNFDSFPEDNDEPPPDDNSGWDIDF
Method: (§1) To determine the role of tyrosine 247 and tyrosine 425 in mediating the nitration dependent inhibition of PKG-1α kinase activity, Y247F- and Y425F-PKG-1α mutants were generated and expressed in HEK-293T cells. HEK-293T cells were transiently transfected with expression plasmids containing WT-, Y247F-, or Y425F-PKG-1α for 48 h. […] Protein extracts were immunoprecipitated using an antibody raised against PKG-1α and the level of nitrated PKG-1α determined by probing the membranes with an antiserum raised against 3-NT. The blots were then stripped and re-probed for PKG-1α to normalize for the efficiency of the immunoprecipitation.
(§2) Total PKG activity was determined using a non-radioactive immunoassay in cell lysates, according to the manufacturer's directions. […]
(§3) After incubation for 30 min at 30° C. to allow the phosphorylation of the bound substrate, an HRP conjugated anti-phosphothreonine specific antibody was added to convert a chromogenic substrate to a colorimetric substrate that was subsequently read spectrophotometrically at 450 nm. The change in absorbance reflected the relative activity of PKG in the sample. […] The kinetic constants were determined using nonlinear regression (curve fit) analysis (GraphPad Prism Software Inc.).

[2] = target: T2, PKG-1α (Homo sapiens, UniProt Q13976); assay: PKG activity in transfected HEK-293T cells; type: cell-based; design: an expression plasmid containing a full length WT-PKG-1α cDNA; made in house; host or cells: HEK-293T; conditions: HEK-293T expressing WT-PKG-1α; SIN-1 500 μM, 30 min
T2 sequence (Q13976 2-671): T1 sequence (Q13976 2-671 Y247F) with F246Y
Method: as §1, §2, §3

[3] = tested on: 3-NT-Y247-PKG-1α; assay: 3-NT-Y247-PKG-1α immunoblot in transfected PASMC; type: cell-based, lamb; conditions: SIN-1 500 μM, 30 min
[4] = target: T2, PKG-1α; assay: PKG activity in transfected PASMC; type: cell-based, lamb; design: an expression plasmid containing a full length WT-PKG-1α cDNA; expressed in transfected cells; host or cells: primary pulmonary artery smooth muscle cells (PASMC) from 4-week old lambs; conditions: PASMC transfected with WT-PKG-1α; SIN-1 500 μM, 48 h
Method: Therefore, the effect of these events were investigated in PASMC transiently transfected with expression plasmids containing WT- and Y247F-PKG-1α. The effect of nitration on pulmonary arterial smooth muscle cell (PASMC) growth and metabolism was determined. PASMC were transiently transfected with expression plasmids containing WT-PKG-1α, Y247F-PKG-1α or pDEST40 (as a control) for 20 h. Cells were then exposed or not to SIN-1 (500 μM, 48 h) and the effect on PKG protein levels (FIG. 2A) and activity determined (FIG. 2B).
(§4) Total PKG activity was determined using a non-radioactive immunoassay in cell lysates, according to the manufacturer's directions. Briefly, protein samples were diluted in kinase reaction buffer containing Mg^2+ and ATP (125 μM) in the presence or absence of 8-Br cGMP (10 μM) and incubated in a 96 well plate pre-coated with a PKG substrate containing threonine residues phosphorylated by PKG.
as §3

[5] = target: T1, PKG-1α; assay: PKG catalytic activity, Michaelis-Menten kinetics for cGMP; type: biochemical; design: made in house; host or cells: HEK-293T; conditions: Y247F mutant upon SIN-1 treatment
Method: as §4
as §3, with “sample. The results were reported as pmols of phosphate incorporated into the GST-G substrate fusion protein by active PKG in the sample in the presence or absence of cGMP (10 μM) per minute at 30° C. per μg of protein (pmol/min/μg).” for “sample.”
To determine the Michaelis-Menten constant (Km) for cGMP, the kinase assay was performed, as mentioned above; however, the cGMP concentration was titrated from 0-10 μM, while the ATP concentration remained constant at 125 μM.

## 3-morpholinosydnonimine N-ethylcarbamide [SIN-1]
[1]
  cGMP dependent PKG activity: unaffected
[2]
  cGMP dependent PKG activity: attenuated
[3]; PASMC transfected with WT-PKG-1α
  PKG-1α nitration (3-NT-Y247-PKG-1α levels): significantly increased
[3]; PASMC, second construct of FIG. 4A
  nitration levels of 3-NT-Y247-PKG-1α: no significant increases
[4]
  cGMP dependent increase in PKG activity: attenuated
[5]
  change of Michaelis-Menten constant (Km) for cGMP: no significant change
